Assay results published in ChEMBL document CHEMBL5724806, “Unraveling interindividual differences and functional consequences of gut microbial metabolism of immunosuppressants” (2024).

Assays:
Type in all cases: ADME
[1] = The drug is tested on Actinomyces naeslundi strain: DSM43013 for biotransformation under anaerobic condition. The drug concentrations were measured over 6 timepoints collected between 0 and 12 hours of incubation by liquid-chromatography-coupled mass spectrometry (LC–MS); parameters: dose 5 uM, timepoint 0, 1.5, 3, 6, 9, 12 hours; details: actinomyces naeslundii, 5 µM
[2] = The drug is tested on Bacteroides caccae strain: DSM19024 for biotransformation under anaerobic condition. The drug concentrations were measured over 6 timepoints collected between 0 and 12 hours of incubation by liquid-chromatography-coupled mass spectrometry (LC–MS); parameters: dose 5 uM, timepoint 0, 1.5, 3, 6, 9, 12 hours; details: 5 µM
[3] = The drug is tested on Bacteroides stercoris strain: HM 1036 for biotransformation under anaerobic condition. The drug concentrations were measured over 6 timepoints collected between 0 and 12 hours of incubation by liquid-chromatography-coupled mass spectrometry (LC–MS); parameters: dose 5 uM, timepoint 0, 1.5, 3, 6, 9, 12 hours; details: 5 µM
[4] = The drug is tested on Bacteroides thetaiotaomicron strain: DSM2079 for biotransformation under anaerobic condition. The drug concentrations were measured over 6 timepoints collected between 0 and 12 hours of incubation by liquid-chromatography-coupled mass spectrometry (LC–MS); parameters: dose 5 uM, timepoint 0, 1.5, 3, 6, 9, 12 hours; details: 5 µM
[5] = The drug is tested on Bacteroides xylanisolvens strain: HM 722 for biotransformation under anaerobic condition. The drug concentrations were measured over 6 timepoints collected between 0 and 12 hours of incubation by liquid-chromatography-coupled mass spectrometry (LC–MS); parameters: dose 5 uM, timepoint 0, 1.5, 3, 6, 9, 12 hours; details: 5 µM
[6] = The drug is tested on Parabacteroides merdae strain: DSM19495 for biotransformation under anaerobic condition. The drug concentrations were measured over 6 timepoints collected between 0 and 12 hours of incubation by liquid-chromatography-coupled mass spectrometry (LC–MS); parameters: dose 5 uM, timepoint 0, 1.5, 3, 6, 9, 12 hours; details: 5 µM
[7] = The drug is tested on Prevotella copri strain: DSM18205 for biotransformation under anaerobic condition. The drug concentrations were measured over 6 timepoints collected between 0 and 12 hours of incubation by liquid-chromatography-coupled mass spectrometry (LC–MS); parameters: dose 5 uM, timepoint 0, 1.5, 3, 6, 9, 12 hours; details: segatella copri, 5 µM
[8] = The drug is tested on Clostridium ramosum strain: DSM1402 for biotransformation under anaerobic condition. The drug concentrations were measured over 6 timepoints collected between 0 and 12 hours of incubation by liquid-chromatography-coupled mass spectrometry (LC–MS); parameters: dose 5 uM, timepoint 0, 1.5, 3, 6, 9, 12 hours; details: thomasclavelia ramosa, 5 µM
[9] = The drug is tested on Dorea formicigenerans strain: DSM3992 for biotransformation under anaerobic condition. The drug concentrations were measured over 6 timepoints collected between 0 and 12 hours of incubation by liquid-chromatography-coupled mass spectrometry (LC–MS); parameters: dose 5 uM, timepoint 0, 1.5, 3, 6, 9, 12 hours; details: 5 µM
[10] = The drug is tested on Gemella morbillorum strain: DSM20572 for biotransformation under anaerobic condition. The drug concentrations were measured over 6 timepoints collected between 0 and 12 hours of incubation by liquid-chromatography-coupled mass spectrometry (LC–MS); parameters: dose 5 uM, timepoint 0, 1.5, 3, 6, 9, 12 hours; details: 5 µM
[11] = The drug is tested on Lactobacillus fermentum strain: DSM20052 for biotransformation under anaerobic condition. The drug concentrations were measured over 6 timepoints collected between 0 and 12 hours of incubation by liquid-chromatography-coupled mass spectrometry (LC–MS); parameters: dose 5 uM, timepoint 0, 1.5, 3, 6, 9, 12 hours; details: limosilactobacillus fermentum, 5 µM
[12] = The drug is tested on Akkermansia muciniphila strain: DSM22959 for biotransformation under anaerobic condition. The drug concentrations were measured over 6 timepoints collected between 0 and 12 hours of incubation by liquid-chromatography-coupled mass spectrometry (LC–MS); parameters: dose 5 uM, timepoint 0, 1.5, 3, 6, 9, 12 hours; details: 5 µM
[13] = The drug is tested on Capnocytophaga ochracea strain: DSM7271 for biotransformation under microaerobic condition. The drug concentrations were measured over 6 timepoints collected between 0 and 12 hours of incubation by liquid-chromatography-coupled mass spectrometry (LC–MS); parameters: dose 5 uM, timepoint 0, 1.5, 3, 6, 9, 12 hours; details: 5 µM
[14] = The drug is tested on Gemella haemolysans strain: DSM107751 for biotransformation under microaerobic condition. The drug concentrations were measured over 6 timepoints collected between 0 and 12 hours of incubation by liquid-chromatography-coupled mass spectrometry (LC–MS); parameters: dose 5 uM, timepoint 0, 1.5, 3, 6, 9, 12 hours; details: 5 µM
[15] = The drug is tested on the gut metagenome community of A-02 with ENA study accession number: PRJEB31790 for biotransformation under anaerobic condition. The drug concentrations were measured over 7 timepoints collected between 0 and 12 hours of incubation by liquid-chromatography-coupled mass spectrometry (LC–MS); parameters: dose 5 uM, timepoint 0, 0.75, 1.5, 3, 6, 9, 12 hours; details: 5 µM
[16] = The drug is tested on the gut metagenome community of A-04 with ENA study accession number: PRJEB31790 for biotransformation under anaerobic condition. The drug concentrations were measured over 7 timepoints collected between 0 and 12 hours of incubation by liquid-chromatography-coupled mass spectrometry (LC–MS); parameters: dose 5 uM, timepoint 0, 0.75, 1.5, 3, 6, 9, 12 hours; details: 5 µM
[17] = The drug is tested on the gut metagenome community of A-05 with ENA study accession number: PRJEB31790 for biotransformation under anaerobic condition. The drug concentrations were measured over 7 timepoints collected between 0 and 12 hours of incubation by liquid-chromatography-coupled mass spectrometry (LC–MS); parameters: dose 5 uM, timepoint 0, 0.75, 1.5, 3, 6, 9, 12 hours; details: 5 µM
[18] = The drug is tested on the gut metagenome community of A-07 with ENA study accession number: PRJEB31790 for biotransformation under anaerobic condition. The drug concentrations were measured over 7 timepoints collected between 0 and 12 hours of incubation by liquid-chromatography-coupled mass spectrometry (LC–MS); parameters: dose 5 uM, timepoint 0, 0.75, 1.5, 3, 6, 9, 12 hours; details: 5 µM
[19] = The drug is tested on the gut metagenome community of P-01 with ENA study accession number: PRJEB31790 for biotransformation under anaerobic condition. The drug concentrations were measured over 7 timepoints collected between 0 and 12 hours of incubation by liquid-chromatography-coupled mass spectrometry (LC–MS); parameters: dose 5 uM, timepoint 0, 0.75, 1.5, 3, 6, 9, 12 hours; details: 5 µM
[20] = The drug is tested on the gut metagenome community of P-04 with ENA study accession number: PRJEB31790 for biotransformation under anaerobic condition. The drug concentrations were measured over 7 timepoints collected between 0 and 12 hours of incubation by liquid-chromatography-coupled mass spectrometry (LC–MS); parameters: dose 5 uM, timepoint 0, 0.75, 1.5, 3, 6, 9, 12 hours; details: 5 µM
[21] = The drug is tested on the gut metagenome community of A-01 with ENA study accession number: PRJEB31790 for biotransformation under microaerobic condition. The drug concentrations were measured over 7 timepoints collected between 0 and 12 hours of incubation by liquid-chromatography-coupled mass spectrometry (LC–MS); parameters: dose 5 uM, timepoint 0, 0.75, 1.5, 3, 6, 9, 12 hours; details: 5 µM
[22] = The drug is tested on the gut metagenome community of A-04 with ENA study accession number: PRJEB31790 for biotransformation under microaerobic condition. The drug concentrations were measured over 7 timepoints collected between 0 and 12 hours of incubation by liquid-chromatography-coupled mass spectrometry (LC–MS); parameters: dose 5 uM, timepoint 0, 0.75, 1.5, 3, 6, 9, 12 hours; details: 5 µM
[23] = The drug is tested on the gut metagenome community of A-07 with ENA study accession number: PRJEB31790 for biotransformation under microaerobic condition. The drug concentrations were measured over 7 timepoints collected between 0 and 12 hours of incubation by liquid-chromatography-coupled mass spectrometry (LC–MS); parameters: dose 5 uM, timepoint 0, 0.75, 1.5, 3, 6, 9, 12 hours; details: 5 µM
[24] = The drug is tested on the gut metagenome community of A-09 with ENA study accession number: PRJEB31790 for biotransformation under microaerobic condition. The drug concentrations were measured over 7 timepoints collected between 0 and 12 hours of incubation by liquid-chromatography-coupled mass spectrometry (LC–MS); parameters: dose 5 uM, timepoint 0, 0.75, 1.5, 3, 6, 9, 12 hours; details: 5 µM
[25] = The drug is tested on the gut metagenome community of A-10 with ENA study accession number: PRJEB31790 for biotransformation under microaerobic condition. The drug concentrations were measured over 7 timepoints collected between 0 and 12 hours of incubation by liquid-chromatography-coupled mass spectrometry (LC–MS); parameters: dose 5 uM, timepoint 0, 0.75, 1.5, 3, 6, 9, 12 hours; details: 5 µM

| SMILES | Bacterial Biotransformation [1] | Bacterial Biotransformation [2] | Bacterial Biotransformation [3] | Bacterial Biotransformation [4] | Bacterial Biotransformation [5] | Bacterial Biotransformation [6] | Bacterial Biotransformation [7] | Bacterial Biotransformation [8] | Bacterial Biotransformation [9] | Bacterial Biotransformation [10] | Bacterial Biotransformation [11] | Bacterial Biotransformation [12] | Bacterial Biotransformation [13] | Bacterial Biotransformation [14] | Bacterial Biotransformation [15] | Bacterial Biotransformation [16] | Bacterial Biotransformation [17] | Bacterial Biotransformation [18] | Bacterial Biotransformation [19] | Bacterial Biotransformation [20] | further results |
| --- | --- | --- | --- | --- | --- | --- | --- | --- | --- | --- | --- | --- | --- | --- | --- | --- | --- | --- | --- | --- | --- |
| NS(=O)(=O)c1cc(C(=O)O)c(NCc2ccco2)cc1Cl [FUROSEMIDE] | Compound NOT metabolized | Compound NOT metabolized | Compound NOT metabolized | Compound NOT metabolized | Compound NOT metabolized | Compound NOT metabolized | Compound NOT metabolized | Compound NOT metabolized | Compound NOT metabolized | Compound NOT metabolized | Compound NOT metabolized | Compound NOT metabolized | Compound NOT metabolized | Compound NOT metabolized | Compound NOT metabolized | Compound NOT metabolized | Compound NOT metabolized | Compound NOT metabolized | Compound NOT metabolized | Compound NOT metabolized | Bacterial Biotransformation [21]: Compound NOT metabolized; Bacterial Biotransformation [22]: Compound NOT metabolized; Bacterial Biotransformation [23]: Compound NOT metabolized; Bacterial Biotransformation [24]: Compound NOT metabolized; Bacterial Biotransformation [25]: Compound NOT metabolized |
| C[C@]12CCC(=O)C=C1CC[C@@H]1[C@@H]2[C@@H](O)C[C@@]2(C)[C@H]1CC[C@]2(O)C(=O)CO [HYDROCORTISONE] | Compound NOT metabolized | Compound NOT metabolized | Compound NOT metabolized | Compound NOT metabolized | Compound NOT metabolized | Compound NOT metabolized | Compound NOT metabolized | Compound NOT metabolized | Compound NOT metabolized | Compound NOT metabolized | Compound NOT metabolized | Compound NOT metabolized | Compound NOT metabolized | Compound NOT metabolized | Compound metabolized | Compound metabolized | Compound metabolized | Compound metabolized | Compound metabolized | Compound metabolized | Bacterial Biotransformation [21]: Compound metabolized; Bacterial Biotransformation [22]: Compound metabolized; Bacterial Biotransformation [23]: Compound metabolized; Bacterial Biotransformation [24]: Compound metabolized; Bacterial Biotransformation [25]: Compound metabolized |
| CN(Cc1cnc2nc(N)nc(N)c2n1)c1ccc(C(=O)N[C@@H](CCC(=O)O)C(=O)O)cc1 [METHOTREXATE] | Compound NOT metabolized | Compound NOT metabolized | Compound NOT metabolized | Compound NOT metabolized | Compound NOT metabolized | Compound NOT metabolized | Compound NOT metabolized | Compound metabolized | Compound NOT metabolized | Compound NOT metabolized | Compound NOT metabolized | Compound NOT metabolized | Compound NOT metabolized | Compound NOT metabolized | Compound metabolized | Compound metabolized | Compound NOT metabolized | Compound metabolized | Compound NOT metabolized | Compound NOT metabolized | Bacterial Biotransformation [21]: Compound NOT metabolized; Bacterial Biotransformation [22]: Compound metabolized; Bacterial Biotransformation [23]: Compound metabolized; Bacterial Biotransformation [24]: Compound metabolized; Bacterial Biotransformation [25]: Compound metabolized |
